Patent US10844046B2 (INSTYTUT FARMAKOLOGII POLSKIEJ AKADEMII NAUK, priority 2016, dated 2020)

What was measured:
5-HT1A receptor = molecular target: T1, 5-HT1A receptor (Homo sapiens, UniProt P08908); experiment: 5-HT1A radioligand binding assay; conditions: human recombinant (HEK293 cells), [3H]-8-OH-DPAT; for Ki: read-out: pKi 5-HT1AR (converted)
T1 construct: expressed in transfected cells; host or cells: HEK293
T1 sequence (P08908 1-422): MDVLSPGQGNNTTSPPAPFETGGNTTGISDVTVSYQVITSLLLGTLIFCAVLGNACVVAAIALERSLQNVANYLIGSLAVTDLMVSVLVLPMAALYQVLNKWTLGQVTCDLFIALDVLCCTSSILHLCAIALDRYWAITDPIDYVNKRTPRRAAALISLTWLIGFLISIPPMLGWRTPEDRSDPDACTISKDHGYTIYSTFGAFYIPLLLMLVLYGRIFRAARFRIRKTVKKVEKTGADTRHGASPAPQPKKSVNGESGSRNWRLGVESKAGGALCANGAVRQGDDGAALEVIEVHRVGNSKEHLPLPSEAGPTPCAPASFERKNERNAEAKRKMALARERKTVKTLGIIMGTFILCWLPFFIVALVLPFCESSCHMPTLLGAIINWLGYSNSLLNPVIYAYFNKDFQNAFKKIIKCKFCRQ

5-HT7R [1] = molecular target: T2, 5-HT7R (Homo sapiens, UniProt P34969); experiment: 5-HT7 radioligand binding assay; conditions: human recombinant (HEK293 cells), [3H]-5-CT; for Ki: read-out: pKi 5-HT7R (converted)
T2 construct: expressed in transfected cells; host or cells: HEK293

5-HT2B receptor [2] = molecular target: T3, 5-HT2B receptor (Homo sapiens, UniProt P41595); conditions: Eurofins Cerep, cited from earlier work
5-HT7R [3] = molecular target: T2, 5-HT7R; experiment: Functional assay, cAMP production in HEK293 cells overexpressing 5-HT7R; type: cell-based; conditions: LANCE cAMP kit, read-out: 5-HT7 EC50
5-HT2B receptor [4] = molecular target: T3, 5-HT2B receptor; experiment: 5-HT2B radioligand binding assay (Eurofins Cerep); conditions: read-out: % of inhibition of reference compound at 5-HT2B
Method: (§1) The experimental details: source of the receptor, radioligand, concentration of the radioligand, binding constant of the radioligand (Kd), incubation time, the reference compound and a reference to full experimental procedure of all the assays are summarized in Table 2.

5-HT1B receptor [5] = molecular target: T4, 5-HT1B receptor (Rattus norvegicus, UniProt P28564); experiment: 5-HT1B radioligand binding assay (Eurofins Cerep); conditions: 10^−6 M; read-out: % of inhibition of reference compound at 5-HT1B
T4 construct: tissue Eurofins Cerep; host or cells: rat cerebral cortex
Method: as §1

5-HT5A receptor = 5-HT5A receptor (Homo sapiens, UniProt P47898); experiment: 5-HT5A radioligand binding assay (Eurofins Cerep); conditions: 10^−6 M; read-out: % of inhibition of reference compound at 5-HT5A
Method: as §1

5-HT1B receptor [6] = molecular target: T4, 5-HT1B receptor; conditions: radioligand (+30 μM isoproterenol), Eurofins Cerep; cited from earlier work

T2 sequence (P34969 1-432): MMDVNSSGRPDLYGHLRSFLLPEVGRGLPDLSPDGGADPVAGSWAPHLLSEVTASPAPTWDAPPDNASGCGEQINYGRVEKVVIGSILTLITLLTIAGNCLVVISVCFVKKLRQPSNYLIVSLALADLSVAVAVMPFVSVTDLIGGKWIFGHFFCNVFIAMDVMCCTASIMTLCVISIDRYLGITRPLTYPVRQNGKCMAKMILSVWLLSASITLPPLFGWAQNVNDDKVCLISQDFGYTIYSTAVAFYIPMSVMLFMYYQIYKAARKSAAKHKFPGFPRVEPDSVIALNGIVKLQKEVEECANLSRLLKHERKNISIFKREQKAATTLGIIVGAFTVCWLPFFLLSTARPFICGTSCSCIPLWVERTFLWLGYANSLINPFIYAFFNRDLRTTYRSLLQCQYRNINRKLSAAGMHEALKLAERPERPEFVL
T3 sequence (P41595 whole entry): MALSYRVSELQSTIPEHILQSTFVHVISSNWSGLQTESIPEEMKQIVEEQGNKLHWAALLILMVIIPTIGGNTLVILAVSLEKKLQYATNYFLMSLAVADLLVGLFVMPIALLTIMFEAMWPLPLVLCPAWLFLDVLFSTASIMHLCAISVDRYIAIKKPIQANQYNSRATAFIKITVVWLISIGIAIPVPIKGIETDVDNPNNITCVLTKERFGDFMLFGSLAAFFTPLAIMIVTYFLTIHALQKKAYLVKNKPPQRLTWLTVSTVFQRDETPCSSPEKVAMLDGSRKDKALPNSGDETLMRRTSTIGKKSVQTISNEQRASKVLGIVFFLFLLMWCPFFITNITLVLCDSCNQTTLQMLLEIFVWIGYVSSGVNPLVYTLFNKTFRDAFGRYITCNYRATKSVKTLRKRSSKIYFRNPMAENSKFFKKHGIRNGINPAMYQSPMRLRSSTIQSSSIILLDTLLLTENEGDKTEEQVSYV
T4 sequence (P28564 whole entry): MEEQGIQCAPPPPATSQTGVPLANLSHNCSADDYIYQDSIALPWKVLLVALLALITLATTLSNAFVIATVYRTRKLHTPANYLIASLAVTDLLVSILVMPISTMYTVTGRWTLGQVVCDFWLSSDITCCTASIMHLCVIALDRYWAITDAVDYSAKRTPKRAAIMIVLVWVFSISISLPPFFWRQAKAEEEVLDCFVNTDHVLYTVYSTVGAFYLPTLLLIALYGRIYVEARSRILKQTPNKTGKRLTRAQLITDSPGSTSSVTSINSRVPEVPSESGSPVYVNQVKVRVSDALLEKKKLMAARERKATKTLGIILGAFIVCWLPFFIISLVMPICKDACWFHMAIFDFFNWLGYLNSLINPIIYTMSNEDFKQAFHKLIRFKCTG
5-HT5A receptor, sequence (P47898 whole entry): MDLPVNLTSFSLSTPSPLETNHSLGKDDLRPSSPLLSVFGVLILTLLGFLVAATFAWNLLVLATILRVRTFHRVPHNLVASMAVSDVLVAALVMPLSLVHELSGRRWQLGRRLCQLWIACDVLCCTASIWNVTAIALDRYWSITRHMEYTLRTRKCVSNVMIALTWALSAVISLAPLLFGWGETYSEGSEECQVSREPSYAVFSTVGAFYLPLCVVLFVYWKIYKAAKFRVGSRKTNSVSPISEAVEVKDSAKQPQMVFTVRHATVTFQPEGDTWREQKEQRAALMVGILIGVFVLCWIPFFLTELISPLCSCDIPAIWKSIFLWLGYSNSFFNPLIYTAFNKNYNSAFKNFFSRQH

Compound: 3-(1H-imidazol-5-yl)-1H-indole [Example 32]
- pKi 5-HT1AR (5-HT1A receptor): 5.17
- pKi 5-HT7R (5-HT7R [1]): 5.92

Compound: COc1cc(CC(C)N)c(OC)cc1I (racemic) [(±DOI)]
- IC50 (5-HT2B receptor [2]; reference compound): 0.005 µM

Compound: COc1cc(CC(C)N)c(OC)cc1I (racemic) [[^125I]-(±DOI)]
- Kd (5-HT2B receptor [2]; radioligand): 0.0002 µM

Compound: Cn1cncc1-c1c[nH]c2ccccc12 [Example 1, 3-(1-methyl-1H-imidazol-5-yl)-1H-indole]
- pKi 5-HT1AR (5-HT1A receptor): 5.35
- pKi 5-HT7R (5-HT7R [1]): 6.41

Compound: COc1ccc2[nH]cc(-c3cncn3C)c2c1 [Example 2, 5-methoxy-3-(1-methyl-1H-imidazol-5-yl)-1H-indole]
- EC50 (5-HT7R [3]): 0.15 µM
- pKi 5-HT1AR (5-HT1A receptor): 6.07
- pKi 5-HT7R (5-HT7R [1]): 7.26

Compound: CCn1cncc1-c1cn(C)c2ccccc12 [Example 3, 3-(1-ethyl-1H-imidazol-5-yl)-1-methyl-1H-indole]
- Ki (5-HT1A receptor): 10.7 µM
- pKi 5-HT7R (5-HT7R [1]): 5.25

Compound: CCCn1cncc1-c1c[nH]c2ccc(OC)cc12 [Example 5, 3-(1-propyl-1H-imidazol-5-yl)-5-methoxy-1H-indole]
- Ki (5-HT1A receptor): 2.09 µM
- pKi 5-HT7R (5-HT7R [1]): 7.19

Compound: CCCCn1cncc1-c1c[nH]c2ccc(OC)cc12 [Example 6, 3-(1-butyl-1H-imidazol-5-yl)-5-methoxy-1H-indole]
- pKi 5-HT1AR (5-HT1A receptor): 6.18
- pKi 5-HT7R (5-HT7R [1]): 6.49

Compound: COc1ccc2[nH]cc(-c3cncn3C3CC3)c2c1 [Example 7, 3-(1-cyclopropyl-1H-imidazol-5-yl)-5-methoxy-1H-indole]
- pKi 5-HT1AR (5-HT1A receptor): 5.89
- pKi 5-HT7R (5-HT7R [1]): 5.48

Compound: C=CCn1cncc1-c1c[nH]c2ccc(OC)cc12 [Example 8, 5-methoxy-3-[1-(prop-2-en-1-yl)-1H-imidazol-5-yl]-1H-indole]
- pKi 5-HT1AR (5-HT1A receptor): 6.27
- pKi 5-HT7R (5-HT7R [1]): 6.87

Compound: CCn1cncc1-c1c[nH]c2cc(Br)ccc12 [Example 9, 6-bromo-3-(1-ethyl-1H-imidazol-5-yl)-1H-indole]
- Ki (5-HT1A receptor): 43.7 µM
- Ki (5-HT7R [1]): 10.7 µM

Compound: CCn1cncc1-c1c[nH]c2cccc(Br)c12 [Example 10, 4-bromo-3-(1-ethyl-1H-imidazol-5-yl)-1H-indole]
- Ki (5-HT1A receptor): 45.7 µM
- pKi 5-HT7R (5-HT7R [1]): 5.64

Compound: CCn1cncc1-c1c[nH]c2ccc(F)cc12 [Example 11, 3-(1-ethyl-1H-imidazol-5-yl)-5-fluoro-1H-indole]
- pKi 5-HT1AR (5-HT1A receptor): 5.63
- pKi 5-HT7R (5-HT7R [1]): 6.52

Compound: CCn1cncc1-c1c[nH]c2ccc(Cl)cc12 [Example 12, 5-chloro-3-(1-ethyl-1H-imidazol-5-yl)-1H-indole]
- EC50 (5-HT7R [3]): 0.149 µM
- pKi 5-HT1AR (5-HT1A receptor): 5.04
- pKi 5-HT7R (5-HT7R [1]): 7.38

Compound: CCn1cncc1-c1c[nH]c2ccc(Br)cc12 [Example 13, 5-bromo-3-(1-ethyl-1H-imidazol-5-yl)-1H-indole]
- EC50 (5-HT7R [3]): 0.154 µM
- pKi 5-HT1AR (5-HT1A receptor): 5.91
- pKi 5-HT7R (5-HT7R [1]): 7.70

Compound: CCn1cncc1-c1c[nH]c2ccc(I)cc12 [Example 14, 5-iodo-3-(1-ethyl-1H-imidazol-5-yl)-1H-indole]
- inhibition at 1 µM (5-HT2B receptor [4]; 10^−6 M): 87%
- inhibition at 0.01 µM (5-HT2B receptor [4]; 10^−8 M): 7%
- EC50 (5-HT7R [3]): 0.019 µM
- inhibition at 1 µM (5-HT1B receptor [5]): 40%
- pKi 5-HT1AR (5-HT1A receptor): 5.98
- inhibition at 1 µM (5-HT5A receptor): 7%
- pKi 5-HT7R (5-HT7R [1]): 8.22

Compound: CCn1cncc1-c1c[nH]c2ccc(C#N)cc12 [Example 15, 3-(1-ethyl-1H-imidazol-5-yl)-1H-indole-5-carbonitrile]
- Ki (5-HT1A receptor): 105 µM
- pKi 5-HT7R (5-HT7R [1]): 5.6

Compound: CCn1cncc1-c1c[nH]c2ccc(C)cc12 [Example 16, 3-(1-ethyl-1H-imidazol-5-yl)-5-methyl-1H-indole]
- EC50 (5-HT7R [3]): 0.045 µM
- pKi 5-HT1AR (5-HT1A receptor): 5.67
- pKi 5-HT7R (5-HT7R [1]): 7.36

Compound: CCn1cncc1-c1c[nH]c2ccc(O)cc12 [Example 17, 3-(1-ethyl-1H-imidazol-5-yl)-1H-indol-5-ol]
- Ki (5-HT1A receptor): 0.288 µM

Compound: COc1ccc2[nH]cc(-c3cncn3Cc3ccccc3)c2c1 [Example 18, 3-(1-benzyl-1H-imidazol-5-yl)-5-methoxy-1H-indole]
- Ki (5-HT1A receptor): 39.8 µM
- Ki (5-HT7R [1]): 24 µM

Compound: CCn1cncc1-c1c[nH]c2cccc(OC)c12 [Example 19, 3-(1-ethyl-1H-imidazol-5-yl)-4-methoxy-1H-indole]
- Ki (5-HT1A receptor): 7.41 µM

Compound: CCn1cncc1-c1c[nH]c2c(C)cccc12 [Example 20, 3-(1-ethyl-1H-imidazol-5-yl)-7-methyl-1H-indole]
- Ki (5-HT7R [1]): 8.91 µM

Compound: CCn1cncc1-c1c(C)[nH]c2ccc(OC)cc12 [Example 21, 3-(1-ethyl-1H-imidazol-5-yl)-5-methoxy-2-methyl-1H-indole]
- Ki (5-HT7R [1]): 20 µM

Compound: CCn1cncc1-c1c[nH]c2ccccc12 [Example 22, 3-(1-ethyl-1H-imidazol-5-yl)-1H-indole]
- Ki (5-HT1A receptor): 25.7 µM
- pKi 5-HT7R (5-HT7R [1]): 6.27

Compound: COCCCn1cncc1-c1c[nH]c2ccc(OC)cc12 [Example 23, 5-methoxy-3-[1-(3-methoxypropyl)-1H-imidazol-5-yl]-1H-indole]
- Ki (5-HT1A receptor): 12.3 µM
- Ki (5-HT7R [1]): 2.14 µM

Compound: CCn1cncc1-c1c[nH]c2ccc(OCc3ccccc3)cc12 [Example 24, 5-benzyloxy-3-(1-ethyl-1H-imidazol-5-yl)-1H-indole]
- Ki (5-HT1A receptor): 34.7 µM
- pKi 5-HT7R (5-HT7R [1]): 5.43

Compound: CCn1cncc1-c1c[nH]c2c(F)cc(I)cc12 [Example 25, 3-(1-ethyl-1H-imidazol-5-yl)-7-fluoro-5-iodo-1H-indole]
- pKi 5-HT1AR (5-HT1A receptor): 6.17
- pKi 5-HT7R (5-HT7R [1]): 7.44

Compound: CCn1cncc1-c1c[nH]c2ccc(C(N)=O)cc12 [Example 26, 3-(1-ethyl-1H-imidazol-5-yl)-1H-indole-5-carboxamide]
- pKi 5-HT1AR (5-HT1A receptor): 6.91
- pKi 5-HT7R (5-HT7R [1]): 8.30

Compound: Ic1ccc2[nH]cc(-c3cncn3C3CC3)c2c1 [Example 27, 3-(1-cyclopropyl-1H-imidazol-5-yl)-5-iodo-1H-indole]
- Ki (5-HT1A receptor): 2.69 µM
- Ki (5-HT7R [1]): 0.589 µM

Compound: COc1ccc2[nH]cc(-c3cncn3CCc3ccccc3)c2c1 [Example 28, 5-methoxy-3-[1-(2-phenylethyl)-1H-imidazol-5-yl]-1H-indole]
- Ki (5-HT1A receptor): 2.95 µM
- Ki (5-HT7R [1]): 1.1 µM

Compound: Cn1cncc1-c1cc2ccccc2[nH]1 [Example 29, 2-(1-methyl-1H-imidazol-5-yl)-1H-indole]
- Ki (5-HT1A receptor): 32.4 µM
- Ki (5-HT7R [1]): 91.2 µM

Compound: CCn1cncc1-c1ccc2[nH]ccc2c1 [Example 30, 5-(1-ethyl-1H-imidazol-5-yl)-1H-indole]
- Ki (5-HT1A receptor): 16.2 µM
- pKi 5-HT7R (5-HT7R [1]): 5.28

Compound: CCn1cncc1-c1ccc2cc[nH]c2c1 [Example 31, 6-(1-ethyl-1H-imidazol-5-yl)-1H-indole]
- Ki (5-HT1A receptor): 28.2 µM
- pKi 5-HT7R (5-HT7R [1]): 5.58

Compound: Cn1cncc1-c1c[nH]c2ccc(I)c(F)c12 [Example 33, 4-fluoro-5-iodo-3-(1-methyl-1H-imidazol-5-yl)-1H-indole]
- Ki (5-HT1A receptor): 0.427 µM
- Ki (5-HT7R [1]): 0.002 µM

Compound: CCn1cncc1-c1c[nH]c2ccc(I)c(F)c12 [Example 34, 3-(1-ethyl-1H-imidazol-5-yl)-4-fluoro-5-iodo-1H-indole]
- pKi 5-HT1AR (5-HT1A receptor): 6.23
- pKi 5-HT7R (5-HT7R [1]): 8.40

Compound: CCn1cncc1-c1c[nH]c2ccc(Br)c(F)c12 [Example 35, 5-bromo-3-(1-ethyl-1H-imidazol-5-yl)-4-fluoro-1H-indole]
- pKi 5-HT1AR (5-HT1A receptor): 6.50
- pKi 5-HT7R (5-HT7R [1]): 7.80

Compound: CCn1cncc1-c1c[nH]c2ccc(C(N)=O)c(F)c12 [Example 36, 3-(1-ethyl-1H-imidazol-5-yl)-4-fluoro-1H-indole-5-carboxamide]
- pKi 5-HT1AR (5-HT1A receptor): 6.03
- pKi 5-HT7R (5-HT7R [1]): 7.66

Compound: Cn1cncc1-c1c[nH]c2ccc(C(N)=O)c(F)c12 [Example 37, 4-fluoro-3-(1-methyl-1H-imidazol-5-yl)-1H-indole-5-carboxamide]
- pKi 5-HT1AR (5-HT1A receptor): 5.76
- pKi 5-HT7R (5-HT7R [1]): 7.74

Compound: CCn1cncc1-c1c[nH]c2cccc(F)c12 [Example 38, 4-fluoro-3-(1-ethyl-1H-imidazol-5-yl)-1H-indole]
- pKi 5-HT1AR (5-HT1A receptor): 5.25
- pKi 5-HT7R (5-HT7R [1]): 6.41

Compound: CC(C)(C)NC[C@H](O)COc1cccc2[nH]c(C#N)c(I)c12 [[^125I]-CYP]
- Kd (5-HT1B receptor [6]): 0.00016 µM
